# Laboratory results taken from PubChem BioAssay AID2060894 (Molecular Pharmacology Branch, DTP, NCI, 2025).
# System: K12877-001-R-J1-PDC complex spheroid viability
# Assay: Anticancer human tumor K12877-001-R-J1-PDC patient-derived lung adenocarcinoma cell line growth inhibition [RAS]
# Conditions: for IC50: curve of first compound; for viability, T/C: stronger effect = lower value
# How it was run: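 Tumour cells grown as complex spheroids with HUVEC endothelial cells and mesenchymal stem cells, treated with RAS pathway inhibitor combinations. Each agent spans half-log steps from near clinical Cmax, or 10 microM where Cmax is unknown.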
# [1] = second compound 0.000949 µM, first compound 0.000949 µM
# [2] = second compound 0.000949 µM, first compound 0.003 µM
# [3] = second compound 0.000949 µM, first compound 0.00949 µM
# [4] = second compound 0.000949 µM, first compound 0.03 µM
# [5] = second compound 0.000949 µM, first compound 0.0949 µM
# [6] = second compound 0.000949 µM, first compound 0.3 µM
# [7] = second compound 0.003 µM, first compound 0.000949 µM
# [8] = second compound 0.003 µM, first compound 0.003 µM
# [9] = second compound 0.003 µM, first compound 0.00949 µM
# [10] = second compound 0.003 µM, first compound 0.03 µM
# [11] = second compound 0.003 µM, first compound 0.0949 µM
# [12] = second compound 0.003 µM, first compound 0.3 µM
# [13] = second compound 0.00949 µM, first compound 0.000949 µM
# [14] = second compound 0.00949 µM, first compound 0.003 µM
# [15] = second compound 0.00949 µM, first compound 0.00949 µM
# [16] = second compound 0.00949 µM, first compound 0.03 µM
# [17] = second compound 0.00949 µM, first compound 0.0949 µM
# [18] = second compound 0.00949 µM, first compound 0.3 µM
# [19] = second compound 0.03 µM, first compound 0.000949 µM
# [20] = second compound 0.03 µM, first compound 0.003 µM
# [21] = second compound 0.03 µM, first compound 0.00949 µM
# [22] = second compound 0.03 µM, first compound 0.03 µM
# [23] = second compound 0.03 µM, first compound 0.0949 µM
# [24] = second compound 0.03 µM, first compound 0.3 µM
# [25] = second compound 0.0949 µM, first compound 0.000949 µM
# [26] = second compound 0.0949 µM, first compound 0.003 µM
# [27] = second compound 0.0949 µM, first compound 0.00949 µM
# [28] = second compound 0.0949 µM, first compound 0.03 µM
# [29] = second compound 0.0949 µM, first compound 0.0949 µM
# [30] = second compound 0.0949 µM, first compound 0.3 µM
# [31] = second compound 0.3 µM, first compound 0.000949 µM
# [32] = second compound 0.3 µM, first compound 0.003 µM
# [33] = second compound 0.3 µM, first compound 0.00949 µM
# [34] = second compound 0.3 µM, first compound 0.03 µM
# [35] = second compound 0.3 µM, first compound 0.0949 µM
# [36] = second compound 0.3 µM, first compound 0.3 µM
# 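Note: spheroids exposed to agents for one week before readout.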
# 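Throughout, for viability, T/C: tumour cells co-cultured with HUVEC and mesenchymal stem cells in spheroids.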
smiles,measurement,setting,value
C=CC(=O)N1CCN(c2nc(OCC3CCCN3C)nc3c(F)c(-c4nc(N)cc(C)c4C(F)(F)F)c(Cl)cc23)C(C)C1 (stereo unspecified) + CCn1c(-c2cccnc2C(C)OC)c2c3cc(ccc31)N1CCOC(CC(NC(=O)C(C(C)C)N(C)C(=O)C3(F)CCN(C(=O)C#CC(C)(C)N(C)C)CC3)C(=O)N3CCCC(N3)C(=O)OCC(C)(C)C2)C1,IC50,second compound 0.000949 µM,> 1000 nM
same,IC50,second compound 0.003 µM,> 1000 nM
same,IC50,second compound 0.00949 µM,> 1000 nM
same,IC50,second compound 0.03 µM,> 1000 nM
same,IC50,second compound 0.0949 µM,> 1000 nM
same,IC50,second compound 0.3 µM,> 1000 nM
same,"viability, T/C","second compound 0.000949 µM, first compound 0.00316 µM",82%
same,"viability, T/C","second compound 0.000949 µM, first compound 0.01 µM",83%
same,"viability, T/C","second compound 0.000949 µM, first compound 0.0316 µM",83.5%
same,"viability, T/C","second compound 0.000949 µM, first compound 0.1 µM",74.2%
same,"viability, T/C","second compound 0.000949 µM, first compound 0.316 µM",76%
same,"viability, T/C","second compound 0.000949 µM, first compound 1 µM",77.8%
same,"viability, T/C","second compound 0.003 µM, first compound 0.00316 µM",78%
same,"viability, T/C","second compound 0.003 µM, first compound 0.01 µM",61.3%
same,"viability, T/C","second compound 0.003 µM, first compound 0.0316 µM",73.6%
same,"viability, T/C","second compound 0.003 µM, first compound 0.1 µM",81.1%
same,"viability, T/C","second compound 0.003 µM, first compound 0.316 µM",86%
same,"viability, T/C","second compound 0.003 µM, first compound 1 µM",71.1%
same,"viability, T/C","second compound 0.00949 µM, first compound 0.00316 µM",75.4%
same,"viability, T/C","second compound 0.00949 µM, first compound 0.01 µM",83.9%
same,"viability, T/C","second compound 0.00949 µM, first compound 0.0316 µM",77.5%
same,"viability, T/C","second compound 0.00949 µM, first compound 0.1 µM",85.3%
same,"viability, T/C","second compound 0.00949 µM, first compound 0.316 µM",85.5%
same,"viability, T/C","second compound 0.00949 µM, first compound 1 µM",78.6%
same,"viability, T/C","second compound 0.03 µM, first compound 0.00316 µM",77.4%
same,"viability, T/C","second compound 0.03 µM, first compound 0.01 µM",76.1%
same,"viability, T/C","second compound 0.03 µM, first compound 0.0316 µM",77.6%
same,"viability, T/C","second compound 0.03 µM, first compound 0.1 µM",75.9%
same,"viability, T/C","second compound 0.03 µM, first compound 0.316 µM",81.7%
same,"viability, T/C","second compound 0.03 µM, first compound 1 µM",73.3%
same,"viability, T/C","second compound 0.0949 µM, first compound 0.00316 µM",83.4%
same,"viability, T/C","second compound 0.0949 µM, first compound 0.01 µM",70.5%
same,"viability, T/C","second compound 0.0949 µM, first compound 0.0316 µM",79.7%
same,"viability, T/C","second compound 0.0949 µM, first compound 0.1 µM",76.1%
same,"viability, T/C","second compound 0.0949 µM, first compound 0.316 µM",73.8%
same,"viability, T/C","second compound 0.0949 µM, first compound 1 µM",72.8%
same,"viability, T/C","second compound 0.3 µM, first compound 0.00316 µM",58.1%
same,"viability, T/C","second compound 0.3 µM, first compound 0.01 µM",67%
same,"viability, T/C","second compound 0.3 µM, first compound 0.0316 µM",66.3%
same,"viability, T/C","second compound 0.3 µM, first compound 0.1 µM",68.5%
same,"viability, T/C","second compound 0.3 µM, first compound 0.316 µM",70%
same,"viability, T/C","second compound 0.3 µM, first compound 1 µM",66.8%
CC1(C)CCC(Nc2ncc(C(F)(F)F)c(-c3c[nH]c4c(P(C)(C)=O)c(C#N)ccc34)n2)CN1 (stereo unspecified) + CCn1c(-c2cccnc2C(C)OC)c2c3cc(ccc31)N1CCOC(CC(NC(=O)C(C(C)C)N(C)C(=O)C3(F)CCN(C(=O)C#CC(C)(C)N(C)C)CC3)C(=O)N3CCCC(N3)C(=O)OCC(C)(C)C2)C1,IC50,second compound 0.000949 µM,16.8 nM
same,IC50,second compound 0.003 µM,15.1 nM
same,IC50,second compound 0.00949 µM,13.2 nM
same,IC50,second compound 0.03 µM,15.9 nM
same,IC50,second compound 0.0949 µM,13.8 nM
same,IC50,second compound 0.3 µM,11 nM
same,"viability, T/C",[1],88.3%
same,"viability, T/C",[2],79%
same,"viability, T/C",[3],63.7%
same,"viability, T/C",[4],36.4%
same,"viability, T/C",[5],24.2%
same,"viability, T/C",[6],18.5%
same,"viability, T/C",[7],80.2%
same,"viability, T/C",[8],81%
same,"viability, T/C",[9],57.8%
same,"viability, T/C",[10],35.9%
same,"viability, T/C",[11],24.9%
same,"viability, T/C",[12],18%
same,"viability, T/C",[13],74.1%
same,"viability, T/C",[14],71.8%
same,"viability, T/C",[15],55.3%
same,"viability, T/C",[16],35.1%
same,"viability, T/C",[17],22.7%
same,"viability, T/C",[18],17.1%
same,"viability, T/C",[19],74.7%
same,"viability, T/C",[20],73.7%
same,"viability, T/C",[21],63.8%
same,"viability, T/C",[22],33%
same,"viability, T/C",[23],20.9%
same,"viability, T/C",[24],19%
same,"viability, T/C",[25],72.8%
same,"viability, T/C",[26],66.1%
same,"viability, T/C",[27],58.4%
same,"viability, T/C",[28],34.7%
same,"viability, T/C",[29],21.8%
same,"viability, T/C",[30],18%
same,"viability, T/C",[31],69.1%
same,"viability, T/C",[32],63.7%
same,"viability, T/C",[33],53.9%
same,"viability, T/C",[34],29.6%
same,"viability, T/C",[35],19%
same,"viability, T/C",[36],14.8%
CCc1c2c(nc3ccc(O)cc13)-c1cc3c(c(=O)n1C2)COC(=O)[C@]3(O)CC + CCn1c(-c2cccnc2C(C)OC)c2c3cc(ccc31)N1CCOC(CC(NC(=O)C(C(C)C)N(C)C(=O)C3(F)CCN(C(=O)C#CC(C)(C)N(C)C)CC3)C(=O)N3CCCC(N3)C(=O)OCC(C)(C)C2)C1,IC50,second compound 0.000949 µM,4.24 nM
same,IC50,second compound 0.003 µM,3.18 nM
same,IC50,second compound 0.00949 µM,2.99 nM
same,IC50,second compound 0.03 µM,2.98 nM
same,IC50,second compound 0.0949 µM,2.7 nM
same,IC50,second compound 0.3 µM,1.63 nM
same,"viability, T/C",[1],89.5%
same,"viability, T/C",[2],68.3%
same,"viability, T/C",[3],7.36%
same,"viability, T/C",[4],4.07%
same,"viability, T/C",[5],2.52%
same,"viability, T/C",[6],1.41%
same,"viability, T/C",[7],62.1%
same,"viability, T/C",[8],52.2%
same,"viability, T/C",[9],8.47%
same,"viability, T/C",[10],3.87%
same,"viability, T/C",[11],2.21%
same,"viability, T/C",[12],1.33%
same,"viability, T/C",[13],78.3%
same,"viability, T/C",[14],49.9%
same,"viability, T/C",[15],7.64%
same,"viability, T/C",[16],4.13%
same,"viability, T/C",[17],2.66%
same,"viability, T/C",[18],1.35%
same,"viability, T/C",[19],78.1%
same,"viability, T/C",[20],49.9%
same,"viability, T/C",[21],7.8%
same,"viability, T/C",[22],3.09%
same,"viability, T/C",[23],2.15%
same,"viability, T/C",[24],1.08%
same,"viability, T/C",[25],75.5%
same,"viability, T/C",[26],47.4%
same,"viability, T/C",[27],6.39%
same,"viability, T/C",[28],4.02%
same,"viability, T/C",[29],2.14%
same,"viability, T/C",[30],1.27%
same,"viability, T/C",[31],62.8%
same,"viability, T/C",[32],35.8%
same,"viability, T/C",[33],5.11%
same,"viability, T/C",[34],3.66%
same,"viability, T/C",[35],1.47%
same,"viability, T/C",[36],1.32%
